Assay results as given in patent publication EP1213583A1, “General method for the covalent immobilisation of indicators in, or onto a support useful for the fabrication of optical sensors” (Innosense S.r.l., priority 2000, dated 2002).
Where two headings read alike, the source gives them in different places.

Assay: pKa determination from absorbance or reflectance spectra vs. pH (four parameter sigmoid fit)
Format: physicochemical
Details: 25°C, 0.9% NaCl
Method: Preferred embodiments of the Invention are illustrated by the following examples. In all cases pKa values of the indicators were obtained at 25°C and constant ionic strength (0.9% NaCl, with buffers at 0.01 M). Absorbance or reflectance spectra of the dyed substrates were taken using a Shimadzu UV-VIS-NIR spectrophotometer model 3101PC or an Ocean Optics PC1000 optical fibre spectrophotometer. pKa data were obtained by plotting the function λb-λ850nm/λa-λ850nm vs. pH, where λb is the absorbance or reflectance at the absorption maximum of the basic form of the indicator dye, λa is absorbance or reflectance at the absorption maximum of the acid form of the indicator dye and λ850nm is the absorption or reflectance at 850 nm. The plots were analysed by fitting the data with the four parameter sigmoid function, f = (a - d)/[1 + (x/c)^b] + d, where a is the asymptotic maximum, b is the slope, c is the pH at inflection or pKa and d is the asymptotic minimum. The fitting was performed using the Marquardt-Levenberg nonlinear least-squares method.

[1] = immobilised by Mannich reaction in Biodyne B nylon 6,6 membrane

Row | pKa (immobilised by Mannich reaction in Biodyne A nylon 6,6 membrane) | pKa (immobilised by Mannich reaction on LoProdyne nylon 6,6 membrane modified with 1,6-diaminohexane) | pKa (indicator in solution, read-out: solution pKa) | SMILES | pKa [1] | solution pKa (indicator in solution)
1 |  |  |  | O=[N+]([O-])c1ccc(N=Nc2c(S(=O)(=O)[O-])cc(O)c3ccc(S(=O)(=O)[O-])cc23)c([N+](=O)[O-])c1.[Na+].[Na+] [nitrazine yellow, 4-(2',4'-dinitrophenylazo)-1-hydroxynaphthalene-3,6-disulfonic acid disodium salt] | 5.41 | 6.60
2 | 9.64 | 9.86 | 8 | O=S1(=O)OC(c2ccc(O)cc2)(c2ccc(O)cc2)c2ccccc21 [phenol red] | 8.68 | 
